According to US10786525B2, “Method for treating haemorrhage, shock and brain injury” (priority 2013, dated 2020):

Tests used:
[1] = oral and/or intravenous 10, 25, 50, and 100 mg/kg; cited from earlier work
[2] = test system: isolated guinea-pig mesenteric artery; assay: Pressure myograph relaxation of AVP-constricted mesenteric artery (Example 4); conditions: for relaxation of intact artery: 0.001 to 1 mM, luminal or abluminal; for abluminal versus luminal relaxation: adenosine: at 10 μM and 100 μM
Procedure: Male guinea pigs (250-300 g) were anesthetised and placed in a cradle and the abdomen opened. Second order mesenteric artery branches were isolated and mounted in a pressure myograph (see FIG. 4) under constant pressure of 60 mmHg and perfusion (luminal flow) of 100 uL/min with Krebs-Henseleit buffer (37° C.). Artery diameter was continuously measured using videomicroscopy (see FIG. 4). For the relaxation/vasodilation experiments arteries were equilibrated and then constricted with 10^−8 M arginine vasopressin (AVP). Adenosine, lidocaine or adenosine-lidocaine together were administered 2) luminally and 2) abluminally and concentration curves were obtained. Stock solutions of adenosine and lidocaine alone or adenosine-lidocaine combined were made in deionized water to 20 mM. A range of volumes were pipetted to provide contact concentrations with the vessel lumen or outer wall that ranged from 0.001 to 1 mM. At the end of experiments, arteries were dilated using calcium-free solution to obtain 100% relaxation. A number of arteries were denuded by introducing 5 ml air into the lumen with flow rate 1000 μl/min. The air outflow was then clamped until the intraluminal pressure reached 70 mmHg, flow rate was reduced to 2 μl/min and the vessel remained pressurized for 10 minutes

NC(=O)c1ncn([C@@H]2O[C@H](CO)[C@@H](O)[C@H]2O)c1N [Acadesine, 5-amino-4-imidazole carboxamide ribonucleoside]
safety in humans [1]: safe in humans

Nc1ncnc2c1ncn2[C@@H]1O[C@H](CO)[C@@H](O)[C@H]1O [adenosine]
relaxation with or without intact endothelium [2]: relaxed the mesenteric artery in a dose dependent manner
relaxation of intact artery [2]: increased relaxation
abluminal versus luminal relaxation [2]: significantly more relaxation

CCN(CC)CC(=O)Nc1c(C)cccc1C [lidocaine]
artery diameter in the presence of endothelium [2]: did not significantly change mesenteric artery diameter
relaxation of intact artery [2]: failed to produce relaxation
abluminal versus luminal relaxation [2]: no significant difference
relaxation when endothelium was absent ([2]; denuded): relaxed the artery
